Assay results: patent US20140248218A1, “ROS-SENSITIVE FLUORESCENT PROBES” (The Regents of the University of California, priority 2013, published 2014)

Key:
[1] = Solubility in aqueous buffer; format: physicochemical; settings: ~1% DMSO (by volume), micromolar concentrations
Text: The corresponding control compound lacking the boronic ester trigger was also synthesized for evaluation (FIG. 3, CBn). Both CBBE and FBBBE were quite soluble in aqueous buffer, using only ˜1% DMSO (by volume) when preparing samples at micromolar concentrations.

[2] = Fluorescence response of the probes to H2O2 (luminescence spectroscopy, fluorescence turn-on); format: physicochemical; settings: for increase in fluorescence in response to excess H2O2 (fluorescence turn-on): 1 μM probe, 50 mM HEPES pH 7.5, H2O2 300 eq (300 μM), ratio of integrated final and initial emission; for change of emission on treatment with H2O2: 50 mM HEPES pH 7.5; for relation of relative emission to H2O2 concentration: 15 min incubation with H2O2, integrated emission
Experimental: Fluorescence emission spectra were recorded with a Perkin-Elmer LS-55 fluorescence spectrometer. To a 2.0 mL solution of probe of varying concentrations in HEPES buffer (50 mM, pH 7.5) was added H2O2 in HEPES to monitor fluorescence turn-on. Spectra were monitored over time at room temperature with quartz cuvettes.
To quantitate the fluorescence turn-on, a sample of each probe (1 μM in 50 mM HEPES pH 7.5) was prepared. An excess of H2O2 (300 eq, 300 μM) was added to the latent fluorophore and spectra were recorded until no increase in fluorescence intensity was observed, signifying a complete reaction. The collected initial and final emission spectrum were integrated, and the ratio reports the fluorescence turn on.
FBBBE and CBBE were evaluated for H2O2 sensitivity under simulated physiological conditions (50 mM HEPES, pH 7.5). For FBBBE, the installation of the benzyl protecting group forces the compound to remain in the closed lactone form, rendering FBBBE (and FBn) nonfluorescent. […] Along with the observed fluorescence increase, the absorption spectrum of FBBBE considerably changed upon H2O2 addition with a large increase in the visible absorption band (λmax=494 nm). The final spectrum recorded was identical to that of an authentic sample of fluorescein, providing additional proof that the probe was undergoing complete deprotection to the desired product (FIG. 7). […] FBBBE was incubated with different concentrations of H2O2 for 15 min and then the emission spectrum was collected.
The coumarin-based compound, CBBE, was nonfluorescent in the absence of H2O2. […] (FIG. 12).
(§1) Additional studies were performed to quantify the fluorescence turn-on for each probe to directly compare the sensitivity to H2O2. […] To determine the sensitivity of these probes in a more quantitative fashion, pseudo first-order kinetic measurements were performed using UV-Vis absorption spectroscopy. The observed rate constants for FBBBE and CBBE activation by H2O2 were kobs=3.1×10-5 s-1 and kobs=4.6×10-3 s-1, respectively. It was determined that the deprotection of CBBE was much faster than FBBBE. This may be likely due to the fact that FBBBE contains two boronic ester triggers that are required for complete release of the fluorophore. Recently, it has been shown that boronic ester based probes can be sensitive to other biologically relevant ROS, such as hypochlorite (—OCl) and peroxynitrite (—ONOO).^[26]

[3] = test system: RAW 264.7 cells; test: Confocal fluorescence imaging of H2O2 in RAW 264.7 macrophages; format: cell-based, Murine; settings: for fluorescence in cells treated with PBS, LPS or H2O2: 50 μM compound 1 h, fixed RAW 264.7 cells
Experimental: RAW 264.7 macrophages were grown in DMEM supplemented with 10% heat-inactivated fetal bovine serum, 2 mM L-glutamine, 100 μg/mL penicillin, and 100 μg/mL streptomycin (Life Technologies, Carlsbad, Calif.). For confocal microscopy, the RAW 264.7 cells were seeded at 250,000 in glass bottom 35 mm dishes (MatTek Corporation, Ashland, Mass.) and post-adhering (5 h), some dishes were treated with 1 μg/mL of LPS (Sigma-Aldrich, St. Louis, Mo.) for 24 h. Other dishes were treated the next day after plating with either 100 μM H2O2 for 1 h or PBS for 1 h. Cells were washed twice with PBS and fixed in ice-cold 95% ethanol for 15 min. Cells were twice rinsed with PBS and incubated with either 50 μM probe (FBBBE) or 50 μM control (FBn) for 1 h at room temperature. Cells were washed twice with PBS and coverslips were mounted over cells using Aqua Mount (Thermo Scientific, Waltham, Mass.). Confocal images were obtained at 80× magnification on an Olympus FV1000 confocal laser scanning microscope. Images were processed using ImageJ software (NIH).
FBBBE was examined for H2O2 detection in biological samples via confocal microscopy. Murine macrophage RAW 264.7 cells were treated with PBS buffer (unstimulated cells), lipopolysaccharide (LPS, stimulated cells), or with exogenous H2O2, followed by incubation with either FBBBE (FIG. 5a-c) or FBn (FIG. 5d-f). The inflammatory effects of LPS in macrophages are well established and result in a burst of reactive oxygen species and reactive nitrogen intermediates among other inflammatory signatures.^[27] […] The cells are washed and fixed prior to incubating with the probe.

[4] = Fluorescent response of probe to hypochlorite compared with H2O2; format: physicochemical; settings: 1 μM probe, 100 μM ROS, 50 mM HEPES pH 7.5, 25° C.
Experimental: FIG. 16. Histograms of fluorescent responses of 1 μM FBBBE to hydrogen peroxide (H2O2) and hypochlorite (OCl^−): (Data shown are for 100 μM of each ROS) hydrogen peroxide and hypochlorite were delivered from 30% and 5% aqueous solutions, respectively and spectra were acquired in 50 mM HEPES (pH 7.5) wherein all data were obtained after incubation with the appropriate ROS at 25° C.; the collected emission was integrated between […] (λex=480 nm), and bars represent relative responses (left to right) at 5 (white), 15 (light gray), 30 (gray), 45 (dark gray), and 60 min (black) after addition of ROS.
as §1, with “Recently, it has been shown that boronic ester based probes can be sensitive to other biologically relevant ROS, such as hypochlorite (—OCl) and peroxynitrite (—ONOO).^[26]” left out

[5] = test system: mouse brain; test: Confocal fluorescence imaging of H2O2 in mouse brain tissue sections (ex vivo); settings: for fluorescence turn-on in brain tissue: 50 μM compound 1 h, sections incubated with PBS or 100 μM H2O2
Experimental: (§2) 3-4 week old female C57BL/6J mice were purchased from Jackson Laboratory (Bar Harbor, Me.). Mice were sacrificed and perfused with sterile PBS. The brain and spinal cord were harvested and imbedded in Tissue-Tek® OCT Compound (Sakura Finetek USA, Torrance, Calif.) and frozen in dry ice before storage at −80° C. All animal studies were reviewed and approved by the University of California, San Diego Institutional Animal Care and Use Committee (La Jolla, Calif.).
(§3) For confocal microscopy, the frozen tissue was cut into 10-μm sections on a Leica cryomicrotome and mounted on slides. Tissue sections were fixed in ice-cold 95% ethanol for 15 min and rehydrated in PBS for 5 min at room temperature in a humidity chamber. Tissue sections were either incubated with PBS or 100 μM H2O2 for 1 h at room temperature in a humidity chamber, followed by a 1 h incubation with either 50 μM probe (FBBBE) or 50 μM control (FBn) and a 10 min nuclear stain (DAPI, 4′,6-diamidino-2-phenylindole). The sections were rinsed in PBS and hydrated in water. Coverslips were mounted using Aqua Mount (Thermo Scientific, Waltham, Mass.). Confocal images were obtained at 40× or 80× magnification on an Olympus FV1000 confocal laser scanning microscope. Images were processed using ImageJ software.
Cellular studies were extended to a more physiologically relevant model for H2O2 detection. H2O2 is particularly active in the brain and neuronal tissue, triggered by the metabolism of neurotransmitters.^[28] The brain and spinal cord from 3-4 week old female C57BL/6J mice were excised, frozen in OCT medium, and 10 μm sagittal cryosections were prepared for staining with FBBBE and FBn. At this age, the mice undergo extensive neuronal development and remodeling. Such activity has been associated with higher levels of neurotransmitter activity and ROS in both neurons and microglial cells in the brain. Consistent with the previous experiments, the sections were either incubated with PBS (unstimulated) or H2O2 (FIG. 6). […]

[6] = test system: mouse spinal cord; test: Confocal fluorescence imaging of H2O2 in mouse spinal cord tissue sections (ex vivo); settings: 50 μM probe 1 h
Experimental: as §2
as §3, with “Coverslips were mounted using Aqua Mount (Thermo Scientific, Waltham, Mass.). Confocal images were obtained at 40× or 80× magnification on an Olympus FV1000 confocal laser scanning microscope. Images were processed using ImageJ software.” left out
To further investigate whether FBBBE is activated by truly endogenous levels of H2O2, the probe was evaluated in the spinal cord. […] The lack of fluorescence signal from the H2O2-treated samples may be due to an inability of FBBBE to penetrate the spinal cord tissues, which is then subsequently washed away before the image is taken.

[7] = cited from earlier work

For `CC1(C)OB(c2ccc(COc3ccc4ccc(=O)oc4c3)cc2)OC1(C)C` [CBBE, 7-((4-(4,4,5,5-tetramethyl-1,3,2-dioxaborolan-2-yl)benzyl)oxy)-2H-chromen-2-one], the “solubility in aqueous buffer” value [1] was “quite soluble”, the “increase in fluorescence in response to excess H2O2 (fluorescence turn-on)” value [2] was 57 fold and the “change of emission on treatment with H2O2” value (from here on “change of emission”) [2] was “quickly turned on”. For the same compound, the “relation of relative emission to H2O2 concentration” value [2] was “linear correlation”.

With `O=c1ccc2ccc(OCc3ccccc3)cc2o1` [CBn, 7-(benzyloxy)-2H-chromen-2-one, reference compound] the “change of emission” value [2] was “no change”.

For `CC1(C)OB(c2ccc(COc3ccc4c(c3)Oc3cc(OCc5ccc(B6OC(C)(C)C(C)(C)O6)cc5)ccc3C43OC(=O)c4ccccc43)cc2)OC1(C)C` [FBBBE, 3′,6′-bis((4-(4,4,5,5-tetramethyl-1,3,2-dioxaborolan-2-yl)benzyl)oxy)-3H-spiro[isobenzofuran-1,9′-xanthen]-3-one], the “solubility in aqueous buffer” value [1] was “quite soluble”, the “fluorescence in cells treated with PBS, LPS or H2O2” value [3] was “observed in all cells” and the “mean fluorescence, PBS or H2O2 vs LPS treated cells” value ([3]; 50 μM probe, 1 μg/mL LPS 24 h, p<0.001) was “statistically different”. For the same compound, the “mean fluorescence, PBS vs H2O2 treated cells” value ([3]; 50 μM probe, 100 μM H2O2 1 h) was “not statistically different”, the “sensitivity to other ROS (OCl-) compared to H2O2” value [4] was “less sensitive” and the “fluorescence turn-on in brain tissue” value [5] was “sufficient to activate the probe”. For the same compound, the “effect of exogenous H2O2 on fluorescence in brain tissue” value ([5]; 50 μM probe, 100 μM H2O2 vs PBS) was “did not alter the fluorescence levels observed”, the “increase in fluorescence in response to excess H2O2 (fluorescence turn-on)” value [2] was 52 fold and the “change of emission” value [2] was “large increase in fluorescence”. The “relation of relative emission to H2O2 concentration” value [2] was “linear correlation”, the “fluorescence in spinal cord tissue with exogenous H2O2” value ([6]; 100 μM H2O2, compared to brain tissue) was “minimal amount of fluorescence” and the “probe activation in unstimulated spinal cord tissue” value ([6]; PBS) was “essentially inactive”.

In the case of `O=C1OC2(c3ccc(OCc4ccccc4)cc3Oc3cc(OCc4ccccc4)ccc32)c2ccccc21` [FBn, 3′,6′-bis(benzyloxy)-3H-spiro[isobenzofuran-1,9′-xanthen]-3-one, reference compound], the “fluorescence in cells treated with PBS, LPS or H2O2” value [3] is reported as “no turn on of fluorescence in any of the cells”, the “fluorescence turn-on in brain tissue” value [5] is reported as “no fluorescence turn on was observed” and the “change of emission” value [2] is reported as “does not show any changes”.

In the case of `O=C1OC2(c3ccc(O)cc3Oc3cc(O)ccc32)c2ccccc21` [Fluorescein], the water solubility [7] is given as “excellent water solubility”.
